Data from PMC10303271, “Synthesis and Receptor Binding Studies of α5 GABAAR Selective Novel Imidazodiazepines Targeted for Psychiatric and Cognitive Disorders” (Molecules, 2023).
Read-outs that look alike come from different tables or passages of the source.

How the values were obtained:
Alpha2A = biological target: T1, Alpha2A (Homo sapiens, UniProt P08913); experiment: PDSP primary binding Alpha2A; conditions: 1.5 h; primary binding, 10,000 nM; last figure of the line = mean of the 4 before it; read-out: Alpha2A, PDSP raw data, mean
T1 construct: purchased NIMH Psychoactive Drug Screening Program (PDSP)
T1 sequence (P08913 1-465): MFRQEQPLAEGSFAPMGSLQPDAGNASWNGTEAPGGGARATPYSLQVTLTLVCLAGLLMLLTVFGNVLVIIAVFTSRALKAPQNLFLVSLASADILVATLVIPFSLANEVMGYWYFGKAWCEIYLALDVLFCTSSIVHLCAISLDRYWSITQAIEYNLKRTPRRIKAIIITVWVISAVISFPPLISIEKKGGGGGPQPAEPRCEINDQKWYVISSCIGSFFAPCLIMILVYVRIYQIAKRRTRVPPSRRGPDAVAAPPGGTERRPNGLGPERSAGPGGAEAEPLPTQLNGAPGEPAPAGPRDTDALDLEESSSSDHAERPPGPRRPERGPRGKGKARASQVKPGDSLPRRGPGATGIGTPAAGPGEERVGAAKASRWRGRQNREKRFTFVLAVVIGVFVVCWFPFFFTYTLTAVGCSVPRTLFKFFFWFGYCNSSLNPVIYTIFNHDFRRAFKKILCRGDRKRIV
Method: (§1) To determine if any off-target receptor-binding effects are present, all the novel ligands were sent to the National Institute of Mental Health (NIMH), Psychoactive Drug Screening Program (PDSP). The ligands were screened over a panel of 47 receptors, ion channels, and transporters to determine any other possible interactions with […]. The hERG-binding was also determined. […] No binding of the test compounds to calcium channels was observed. […] It is necessary to screen the compounds for hERG-binding during the early process of drug discovery. The unintentional binding of many drugs to hERG can cause blockade of hERG K+ channels in the heart, which can cause many side effects including cardiac arrhythmias and sudden death. […] All of the α5 imidazodiazepines were tested for hERG-binding.
(§2) The NIMH PDSP assay protocol book [https://kidbdev.med.unc.edu/databases/PDSP%20Protocols%20II%202013-03-28.pdf accessed on 23 April 2023]. describes the protocols for primary and secondary radio-ligand binding assays. These assays were carried out in a final volume of 125 µL per well in the appropriate binding buffer.
(§3) The binding of a ligand to a receptor, ion channel, or transporter was determined in the […] of 10 µM of the appropriate reference compound. […] Plates were incubated in the dark for 90 min at rt, and the reactions were stopped by vacuum filtration onto 0.3% polyethyleneimine (PEI) soaked 96-well filter mats using a 96-well Filtermateharvester. This was followed by three washes with cold PBS buffer. Radioactivity was then counted on a Microbeta counter. Nonlinear regression was used to analyze the data with N = 6 replicates.

Sigma 1 = experiment: PDSP primary binding Sigma 1; conditions: primary binding, 10,000 nM; last figure of the line = mean of the 4 before it
Method: as §1, §2, §3

M3 = biological target: T2, M3 (Homo sapiens, UniProt P20309); experiment: PDSP primary binding M3; conditions: primary binding, 10,000 nM; last figure of the line = mean of the 4 before it; read-out: M3, PDSP raw data, mean
T2 construct: purchased NIMH Psychoactive Drug Screening Program (PDSP)
T2 sequence (P20309 whole entry): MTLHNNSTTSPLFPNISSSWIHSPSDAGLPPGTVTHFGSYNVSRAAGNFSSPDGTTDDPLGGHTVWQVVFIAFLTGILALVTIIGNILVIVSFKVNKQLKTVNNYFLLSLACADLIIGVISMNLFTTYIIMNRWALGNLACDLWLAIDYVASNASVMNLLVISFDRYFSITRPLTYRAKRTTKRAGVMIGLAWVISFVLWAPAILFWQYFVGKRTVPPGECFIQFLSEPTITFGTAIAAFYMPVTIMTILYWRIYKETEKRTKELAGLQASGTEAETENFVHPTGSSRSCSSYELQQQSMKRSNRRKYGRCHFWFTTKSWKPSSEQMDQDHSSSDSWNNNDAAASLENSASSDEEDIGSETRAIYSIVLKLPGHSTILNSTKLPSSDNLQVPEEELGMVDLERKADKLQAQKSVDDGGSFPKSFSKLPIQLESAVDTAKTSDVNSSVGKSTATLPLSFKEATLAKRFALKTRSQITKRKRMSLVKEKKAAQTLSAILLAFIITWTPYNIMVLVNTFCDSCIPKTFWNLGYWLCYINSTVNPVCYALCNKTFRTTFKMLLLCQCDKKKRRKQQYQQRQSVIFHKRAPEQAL
Method: as §1, §2, §3

H3 = biological target: T3, H3 (Homo sapiens, UniProt Q9Y5N1); experiment: PDSP primary binding H3; conditions: primary binding, 10,000 nM; last figure of the line = mean of the 4 before it; read-out: H3, PDSP raw data, mean
T3 construct: purchased NIMH Psychoactive Drug Screening Program (PDSP)
T3 sequence (Q9Y5N1 whole entry): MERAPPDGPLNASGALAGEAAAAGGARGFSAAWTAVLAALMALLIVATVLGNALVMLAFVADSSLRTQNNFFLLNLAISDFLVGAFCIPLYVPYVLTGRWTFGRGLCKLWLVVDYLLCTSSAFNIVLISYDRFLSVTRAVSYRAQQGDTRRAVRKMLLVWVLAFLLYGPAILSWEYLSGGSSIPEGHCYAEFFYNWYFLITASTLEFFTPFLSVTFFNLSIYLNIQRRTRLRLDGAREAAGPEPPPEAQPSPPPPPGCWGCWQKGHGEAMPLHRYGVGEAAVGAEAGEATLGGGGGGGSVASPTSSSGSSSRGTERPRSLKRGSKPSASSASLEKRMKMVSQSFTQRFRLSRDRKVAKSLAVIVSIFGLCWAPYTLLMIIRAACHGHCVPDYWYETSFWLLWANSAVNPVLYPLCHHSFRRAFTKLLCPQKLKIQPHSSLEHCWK
Method: as §1, §2, §3

V1A = biological target: T4, V1A (Homo sapiens, UniProt P37288); experiment: PDSP primary binding V1A; conditions: primary binding, 10,000 nM; last figure of the line = mean of the 4 before it; read-out: V1A, PDSP raw data, mean
T4 construct: purchased NIMH Psychoactive Drug Screening Program (PDSP)
T4 sequence (P37288 whole entry): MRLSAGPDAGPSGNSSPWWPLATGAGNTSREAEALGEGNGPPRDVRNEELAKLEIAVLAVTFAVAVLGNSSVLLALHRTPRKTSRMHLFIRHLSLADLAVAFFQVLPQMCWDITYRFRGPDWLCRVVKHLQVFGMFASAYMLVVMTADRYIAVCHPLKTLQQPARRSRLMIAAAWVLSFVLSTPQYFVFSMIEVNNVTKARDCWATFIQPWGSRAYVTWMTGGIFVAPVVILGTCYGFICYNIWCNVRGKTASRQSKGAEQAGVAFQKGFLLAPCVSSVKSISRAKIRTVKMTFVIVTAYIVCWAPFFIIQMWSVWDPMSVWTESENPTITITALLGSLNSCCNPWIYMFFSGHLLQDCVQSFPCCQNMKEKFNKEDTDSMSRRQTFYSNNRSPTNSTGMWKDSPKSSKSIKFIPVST
Method: as §1, §2, §3

D5 = biological target: T5, D5 (Homo sapiens, UniProt P21918); experiment: PDSP primary binding D5; conditions: 1.5 h; primary binding, 10,000 nM; last figure of the line = mean of the 4 before it; read-out: D5, PDSP raw data, mean
T5 construct: purchased NIMH Psychoactive Drug Screening Program (PDSP)
T5 sequence (P21918 whole entry): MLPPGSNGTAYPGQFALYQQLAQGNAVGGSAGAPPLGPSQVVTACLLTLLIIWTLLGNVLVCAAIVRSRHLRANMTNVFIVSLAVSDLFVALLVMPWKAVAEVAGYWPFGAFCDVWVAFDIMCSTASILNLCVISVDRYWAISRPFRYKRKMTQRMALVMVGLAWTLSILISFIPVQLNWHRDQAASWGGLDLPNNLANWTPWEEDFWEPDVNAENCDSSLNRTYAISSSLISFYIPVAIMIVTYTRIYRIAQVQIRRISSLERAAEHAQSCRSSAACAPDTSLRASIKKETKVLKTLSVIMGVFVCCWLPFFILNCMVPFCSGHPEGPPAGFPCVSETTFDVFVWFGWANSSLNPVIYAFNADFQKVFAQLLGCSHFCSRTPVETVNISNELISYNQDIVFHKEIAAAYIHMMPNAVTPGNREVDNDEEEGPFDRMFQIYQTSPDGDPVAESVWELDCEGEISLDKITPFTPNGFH
Method: as §1, §2, §3

Beta2 = biological target: T6, Beta2 (Homo sapiens, UniProt P07550); experiment: PDSP primary binding Beta2; conditions: 1.5 h; primary binding, 10,000 nM; last figure of the line = mean of the 4 before it; read-out: Beta2, PDSP raw data, mean
T6 construct: purchased NIMH Psychoactive Drug Screening Program (PDSP)
T6 sequence (P07550 whole entry): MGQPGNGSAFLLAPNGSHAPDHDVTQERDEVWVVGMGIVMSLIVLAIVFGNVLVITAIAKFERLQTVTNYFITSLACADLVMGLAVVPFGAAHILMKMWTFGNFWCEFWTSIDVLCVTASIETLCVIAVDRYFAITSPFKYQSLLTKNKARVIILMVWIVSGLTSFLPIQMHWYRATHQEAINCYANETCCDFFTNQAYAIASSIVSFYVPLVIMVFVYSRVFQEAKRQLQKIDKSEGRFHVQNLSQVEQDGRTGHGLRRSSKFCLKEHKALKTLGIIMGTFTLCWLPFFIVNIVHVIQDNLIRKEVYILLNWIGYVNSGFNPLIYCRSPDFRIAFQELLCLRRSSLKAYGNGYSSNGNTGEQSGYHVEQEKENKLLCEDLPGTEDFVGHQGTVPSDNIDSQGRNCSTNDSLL
Method: as §1, §2, §3

[1] = biological target: peripheral benzodiazepine receptors (PBR) (Rattus norvegicus, UniProt P16257); experiment: PDSP radioligand binding at PBR
peripheral benzodiazepine receptors (PBR), sequence (P16257 whole entry): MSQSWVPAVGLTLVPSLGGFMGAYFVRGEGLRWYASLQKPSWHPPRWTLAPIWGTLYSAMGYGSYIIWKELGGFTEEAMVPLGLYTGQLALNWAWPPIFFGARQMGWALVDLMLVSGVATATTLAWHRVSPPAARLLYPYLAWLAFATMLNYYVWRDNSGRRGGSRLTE
Source text: The compounds were also screened at PDSP to determine any binding with peripheral benzodiazepine receptors (PBR). A number of biological processes are associated with PBR. The most prevalent are transportation of anions for mitochondrial transmembrane potential, biosynthesis of heme, regulation of neurological damage, proliferation, cell death (apoptosis), as well as regulation of steroidogenesis. The test compounds were screened in the primary binding assay to determine the % inhibition at PBR. […] These compounds were then subjected to a secondary screening to determine the Ki (nM) value for PBR receptors.
as §2, §3

Alpha2B = biological target: T7, Alpha2B (Homo sapiens, UniProt P18089); experiment: PDSP primary binding Alpha2B; conditions: 1.5 h; primary binding, 10,000 nM; last figure of the line = mean of the 4 before it; read-out: Alpha2B, PDSP raw data, mean
T7 construct: purchased NIMH Psychoactive Drug Screening Program (PDSP)
T7 sequence (P18089 1-450): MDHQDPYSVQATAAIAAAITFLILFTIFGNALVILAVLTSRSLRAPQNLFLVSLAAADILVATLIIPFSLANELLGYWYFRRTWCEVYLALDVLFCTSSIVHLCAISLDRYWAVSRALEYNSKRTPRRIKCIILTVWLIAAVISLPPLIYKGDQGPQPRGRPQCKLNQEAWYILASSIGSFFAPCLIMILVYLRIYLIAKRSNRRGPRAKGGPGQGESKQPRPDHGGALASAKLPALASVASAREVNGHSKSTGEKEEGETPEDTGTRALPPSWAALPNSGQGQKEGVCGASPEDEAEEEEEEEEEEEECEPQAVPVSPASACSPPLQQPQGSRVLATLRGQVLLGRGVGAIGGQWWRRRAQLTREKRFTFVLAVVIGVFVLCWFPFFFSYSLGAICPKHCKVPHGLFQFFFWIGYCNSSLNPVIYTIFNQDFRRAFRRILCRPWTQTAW
Method: as §1, §2, §3

[2] = 1.5 h, primary binding, 10,000 nM, last figure of the line = mean of the 4 before it, some tables list PBR twice, read-out: PBR, PDSP raw data, mean
[3] = at 10,000 nM, N = 5, read-out: Binding Affinity at PBR % Inhibition (Primary)

| Compound | inhibition at 10 µM (Alpha2A) | Sigma 1, PDSP raw data, mean (Sigma 1) | inhibition at 10 µM (M3) | inhibition at 10 µM (H3) | inhibition at 10 µM (V1A) | inhibition at 10 µM (D5) | inhibition at 10 µM (Beta2) | inhibition at 10 µM [1, 2] | inhibition at 10 µM (Alpha2B) | Ki [1] | inhibition at 10 µM [1, 3] | Ki ([1]; N = 2, read-out: Binding Affinity at PBR Ki (Secondary Screen)) |
| --- | --- | --- | --- | --- | --- | --- | --- | --- | --- | --- | --- | --- |
| C#Cc1ccc2c(c1)C(c1ccccn1)=N[C@@H](C)c1c(C(=O)NC)ncn1-2 [Compound 23, (S)-8-Ethynyl-N,4-dimethyl-6-(pyridin-2′-yl)-4H-benzo[f]imidazo[1,5-a][1,4]diazepine-3-carboxamide] | 5.8% | 43.18% | 0.11% | -12.8% | 25.4% | -16.1% | -5.89% | 34.9% | 4.64% | – | – | – |
| C[C@H]1N=C(c2ccccc2F)c2cc(-c3ccccc3)ccc2-n2cnc(C(=O)N(C)C)c21 [Compound 5, (R)-6-(2′-Fluorophenyl)-N,N,4-trimethyl-8-phenyl-4H-benzo[f]imidazo[1,5-a][1,4]diazepine-3-carboxamide] | 5.99% | 46.91% | 3.03% | 5.94% | 15.6% | 1.22% | -0.87% | 22.3% | 68.9% | – | – | – |
| CCc1noc(-c2ncn3c2CN=C(c2ccccc2F)c2cc(C4CC4)ccc2-3)n1 [Compound 44, 5-(8-Cyclopropyl-6-(2′-fluorophenyl)-4H-benzo[f]imidazo[1,5-a][1,4]diazepin-3-yl)-3-ethyl-1,2,4-oxadiazole] | 14.4% | 53.37% | -0.6% | 7.26% | 21.3% | 9.06% | 3.97% | 71% | 36.6% | – | – | – |
| CCc1noc(-c2ncn3c2[C@@H](C)N=C(c2ccccc2F)c2cc(C4CC4)ccc2-3)n1 [Compound 46, (R)-5-(8-Cyclopropyl-6-(2′-fluorophenyl)-4-methyl-4H-benzo[f]imidazo[1,5-a][1,4]diazepin-3-yl)-3-ethyl-1,2,4-oxadiazole] | 29.2% | 34.74% | 8.95% | -6.39% | -6.74% | 51.2% | -6.06% | 86.4% | 44.2% | 627.3 ± 5.72 nM | 86.4 ± 6.35% | – |
| C#Cc1ccc2c(c1)C(c1ccccn1)=N[C@@H](C)c1c(C(=O)N(C)C)ncn1-2 [Compound 31, (S)-8-Ethynyl-N,N,4-trimethyl-6-(pyridin-2′-yl)-4H-benzo[f]imidazo[1,5-a][1,4]diazepine-3-carboxamide] | -7.15% | 27.79% | -13% | -5.55% | 3.6% | -11.1% | -0.05% | 4.44% | -0.93% | – | – | – |
| CC(C)c1noc(-c2ncn3c2[C@@H](C)N=C(c2ccccc2F)c2cc(Cl)ccc2-3)n1 [Compound 37, (R)-5-(8-Chloro-6-(2′-fluorophenyl)-4-methyl-4H-benzo[f]imidazo[1,5-a][1,4]diazepin-3-yl)-3-isopropyl-1,2,4-oxadiazole] | 22.8% | 5.67% | 15.6% | 6.42% | -10.1% | 17.1% | 6.55% | 89.6% | 18.5% | 838 ± 135 nM | 88 ± 1.32% | – |
| CCc1noc(-c2ncn3c2[C@@H](C)N=C(c2ccccc2F)c2cc(-c4ccccc4)ccc2-3)n1 [Compound 35, (R)-3-Ethyl-5-(6-(2′-fluorophenyl)-4-methyl-8-phenyl-4H-benzo[f]imidazo[1,5-a][1,4]diazepin-3-yl)-1,2,4-oxadiazole] | 34.5% | 45.25% | 9.75% | 4.89% | 3.9% | 23.6% | 0.34% | 71.8% | 45.7% | – | 71.8 ± 10.5% | 1110 ± 24.5 nM |
| C#Cc1ccc2c(c1)C(c1ccccc1F)=N[C@H](C)c1c(C(=S)N(C)C)ncn1-2 [Compound 33, (R)-8-Ethynyl-6-(2′-fluorophenyl)-N,N,4-trimethyl-4H-benzo[f]imidazo[1,5-a][1,4]diazepine-3-carbothioamide] | 5.99% | 46.91% | 3.03% | 5.94% | 15.6% | 1.22% | -0.87% | 22.3% | 68.9% | 1710 nM | 66.4 ± 3.3% | – |
| C[C@H]1N=C(c2ccccc2F)c2cc(Cl)ccc2-n2cnc(-c3nc(C4CC4)no3)c21 [Compound 38, (R)-5-(8-Chloro-6-(2′-fluorophenyl)-4-methyl-4H-benzo[f]imidazo[1,5-a][1,4]diazepin-3-yl)-3-cyclopropyl-1,2,4-oxadiazole] | 15.6% | -1.51% | 19.3% | 3.21% | 4.3% | 14.1% | 1.75% | 89.5% | 17.6% | 617 ± 27.1 nM | 90 ± 2.13% | – |
| C#Cc1ccc2c(c1)C(c1ccccc1Cl)=N[C@H](C)c1c(C(=O)NC)ncn1-2 [Compound 21, (R)-6-(2′-Chlorophenyl)-8-ethynyl-N,4-dimethyl-4H-benzo[f]imidazo[1,5-a][1,4]diazepine-3-carboxamide] | -1.1% | 44.58% | -12.9% | 4.81% | 35.1% | 12.2% | -0.28% | 5.68% | -2.45% | – | – | – |
